Our source for the IC50 values is patent publication US20130060024A1, “Compounds useful for treating neurodegenerative disorders” (SATORI PHARMACEUTICALS, INC., priority 2011, published 2013).

Where two headings read alike, the source gives them in different places. Some results are limits rather than exact numbers.

What all share (assay type): cell-based
Test [1] relates to Aβ-42. Description: Aβ-42 MSD 3-PLEX ELISA, conditioned media of 2B7 cells. As to conditions: Homo sapiens. As to the method: (§1) Assays were conducted to determine the ability of a Compound of Formula I to modulate […], […], and Aβ-38. Human (6E10) Ab 3-PLEX ELISA kits were purchased from Meso Scale Discovery Labs, 9328 Gaither Road, Gaithersburg, Md. 20877 (Catalog Number […]-3). Plates with capture antibodies were blocked for 1-2 hours at room temperature with 150 μL of the manufactures blocking reagent. Cultured 2B7 cells in 96 well plate with 250 μL of media per well until confluent; Prepared serial dilutions of compounds in DMSO at 100× the final desired concentration; Washed wells with 2B7 cells 1× with 250 μL of media; Diluted DMSO stocks 1:100 into media: Added 250 μL of media containing compounds (1% DMSO) to wells with 2B7 cells for 5 hours at 37° C. Diluted conditioned media: 1 part media with 1% DMSO and 1 part blocking buffer; 150 μL of the 250 μL of conditioned media were used. Seven point standard curve samples were prepared that contained Aβ-42, Aβ-40, and Aβ-38. The highest concentration of Aβ-42 and Aβ-38 was 3,000 pg/mL and the highest concentration of Aβ-40 was 10,000 pg/mL. Subsequent serial dilutions were 1:3 and the final composition of each sample was 1 part blocking buffer and 1 part cell medium containing 1% DMSO. Blocked plates are washed 5× with MSD wash buffer with a plate washer; 25 μL of detection antibody and blocker G reagent in MSD blocking solution was added; 25 μL of samples (1 part conditioned media containing 1% DMSO and 1 part MSD blocking buffer) were then added; Plates were incubated overnight at 4 degrees C. or 2 hours at room temperature. Washed wells 5× with MSD wash buffer; Added 150 μL 2×MSD read buffer; Read with MSD imager. Aβ peptide levels for each peptide were calculated from the standard curve using the MSD software provided with the MSD 2400 Imager. Percent vehicle values for each compound dosage were then calculated and fit to a 4 parameter curve generating IC50 values.
(In general: In an ELISA, binding on a coated surface is turned into a signal by an enzyme label.)

The subject of test [2] is Aβ-38. Description: Aβ-38 MSD 3-PLEX ELISA, conditioned media of 2B7 cells. The conditions noted are these: Homo sapiens; 2B7 cells, 5 hours at 37° C., 1% DMSO; read-out: Aβ 38 IC50. As to the method: as §1
Test [3] concerns Aβ-40. Briefly: Aβ-40 MSD 3-PLEX ELISA, conditioned media of 2B7 cells. The conditions noted are these: Homo sapiens; 2B7 cells, 5 hours at 37° C., 1% DMSO; read-out: Aβ 40 IC50. As to the method: as §1
[4] abbreviates: 5 h, read-out: Aβ 42 DR IC50 Inflection.
The mark [5] stands for this setting: 2B7 cells, 5 hours at 37° C., 1% DMSO, read-out: Aβ 42 IC50.

What is called IC50 is the concentration needed to halve the response being measured. For `CCO[C@@H]([C@H]1C[C@@H](C)[C@H]2[C@H](O1)[C@H](O)[C@@]1(C)[C@@H]3CC[C@H]4C(C)(C)[C@@H](OC(=O)NCCN5CC(F)(F)C5)CC[C@@]45C[C@@]35CC[C@]21C)C(C)(C)O` [Compound I-18], the IC50 in test [1] (setting [4]) was 100 to 500 nM; in test [1] (setting [5]), 100 to 500 nM; in test [2], 501 to 1000 nM; in test [3] it was over 5000 nM.
Take `CCO[C@@H]([C@H]1C[C@@H](C)[C@H]2[C@H](O1)[C@H](O)[C@@]1(C)[C@@H]3CC[C@H]4C(C)(C)[C@@H](OC(=O)NC5CN(C6CCC6)C5)CC[C@@]45C[C@@]35CC[C@]21C)C(C)(C)O` [Compound I-22]: the half-inhibitory concentration (IC50) in test [1] (setting [4]) was 100 to 500 nM; in test [1] (setting [5]), 100 to 500 nM; in test [2], 501 to 1000 nM; in test [3], 1000 to 5000 nM.
